Measured values reported in paper PMC3433414, “Oral Administration of the Pimelic Diphenylamide HDAC Inhibitor HDACi 4b Is Unsuitable for Chronic Inhibition of HDAC Activity in the CNS In Vivo” (PLoS ONE, 2012).

Experiments:
[1] = tested on: M (non‐selective); test: Cerep binding, antagonist radioligand; settings: 10 μM
Excerpt: (§1) In addition to the HDAC profiling performed, we also queried 4b for any apparent potential off-target effects, which could complicate any finding of efficacy or adverse events in vivo due to ‘polypharmacy’. This was accomplished by screening against a ‘diversity panel’ of 72 binding and 29 enzyme assays, comprised of roughly equal numbers of selective central and peripheral therapeutically relevant targets (Cerep Diversity Profile). This panel included representative targets from diverse enzyme families, G protein coupled receptors, steroid nuclear receptors, voltage- and ligand-gated ion channels. While not totally inclusive, it is a useful tool for discovery compounds to assess their viability as proof of concept molecules to specifically query a particular target. 4b was initially screened at 10 µM in duplicate. The full set of results is provided as Table S1. […] This clean in vitro profile was considered acceptable to proceed to ADME and pharmacokinetic studies.

[2] = tested on: NMDA; test: Cerep binding, antagonist radioligand; settings: 10 μM
Excerpt: as §1

[3] = tested on: PCP; test: Cerep binding, antagonist radioligand; settings: 10 μM
Excerpt: as §1

[4] = tested on: Na+ channel (site 2); test: Cerep binding, antagonist radioligand; settings: 10 μM
Excerpt: as §1

[5] = tested on: diversity panel of 72 binding and 29 enzyme assays; test: Cerep Diversity Profile, overall; settings: 10 µM, duplicate
Excerpt: as §1

[6] = Chemical stability in formulation or solution; format: physicochemical; settings: free base; LC-MS day 1 and after 7 days; with or without heating
Experimental: Thomas and colleagues reported that a solution of 4b at 1 mg/mL was previously obtained using this procedure. […] We therefore prepared both TFA and hydrochloride (HCl) salts of 4b to establish whether they could offer improved solubility. Neither salt form of 4b was particularly soluble in water (<1 mg/ml). […] A study of the stability of the TFA salt also raised another more worrying issue in the use of 2-hydroxypropyl-β-cyclodextrin–complexed 4b salts for potential in vivo studies. […] The 4b. […] The lower than expected initial quantification of 4b was most likely due to the TFA salt rapidly degrading upon heating. Indeed, we always found the presence of the cyclised benzimidazole conversion product, named throughout as product C1, in the salt formulations even at t = 0 after preparation. Furthermore, the suspension was not stable upon standing in the dark with gentle shaking at room temperature, with a further 28% decrease observed in parent (4b) concentration on day 7 analysis, compared to day 1.
According to Thomas et al, verification of an acute pharmacodynamic response (the reversal of transcriptional dysregulation in the R6/2 model) was achieved by the repeated once daily injection of 150 mg/kg 4b in 50∶50 DMSO: PBS for three consecutive days. […] The lack of any pharmacodynamic response predictive of central Class I HDAC inhibition when 4b was dosed orally at 150 mg/kg twice daily for 5 days confirmed this prediction.

[7] = Simulated gastric fluid stability; format: in vitro ADME
Experimental: Simulated gastric fluid (SGF), pH 1.2, was prepared containing 2 g/L sodium chloride, 3.2 g/L of pepsin, 0.7% (v/v) HCl. Gastric buffer, pH 1.2, was also prepared containing 2 g/L sodium chloride and 0.7% (v/v) HCl. Test compound (10 µM) was added to both fluids and samples were mixed at room temperature on an orbital shaker. At each time-point (0, 2 and 4 h) 50 µL of sample was added to 150 µL DMSO, mixed and analysed immediately. Samples were analysed by LC-UV (λ = 254 nm. The instrument responses (i.e. chromatographic peak areas) were referenced to the zero time-point samples (as 100%) in order to determine the percentage of compound remaining at each time-point.

[8] = tested on: opioid (non‐selective); test: Cerep binding, antagonist radioligand; settings: 10 μM
Excerpt: as §1

[9] = target: T1, D1 (h) (Homo sapiens, UniProt P21728); test: Cerep binding, antagonist radioligand; settings: read-out: % inhibition of control specific binding
T1 construct: purchased Cerep (Diversity Profile)
Excerpt: as §1

[10] = tested on: KATP channel; test: Cerep binding, antagonist radioligand; settings: 10 μM
Excerpt: as §1

T1 sequence (P21728 whole entry): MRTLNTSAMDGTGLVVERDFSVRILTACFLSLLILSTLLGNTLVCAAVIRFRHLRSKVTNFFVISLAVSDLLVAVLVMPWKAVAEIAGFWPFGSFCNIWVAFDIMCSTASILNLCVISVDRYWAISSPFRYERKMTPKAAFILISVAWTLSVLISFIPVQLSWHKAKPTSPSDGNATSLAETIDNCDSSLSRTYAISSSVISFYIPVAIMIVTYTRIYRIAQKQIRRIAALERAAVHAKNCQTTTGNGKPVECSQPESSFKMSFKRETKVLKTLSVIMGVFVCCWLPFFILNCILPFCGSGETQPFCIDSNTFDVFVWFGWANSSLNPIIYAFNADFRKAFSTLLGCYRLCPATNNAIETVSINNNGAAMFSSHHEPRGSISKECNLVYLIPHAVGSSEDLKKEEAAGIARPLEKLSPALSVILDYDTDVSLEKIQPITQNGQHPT

Question: What does the source list for `Nc1ccccc1NC(=O)CCCCCC(=O)Nc1ccccc1` [Compound 4b]?
Answer: % inhibition of control specific binding [1]: 13%; % inhibition of control specific binding [2]: 1%; % inhibition of control specific binding [3]: 15%; % inhibition of control specific binding [4]: 7%; off-target profile in the Cerep Diversity Profile [5]: clean; degradation in cyclodextrin suspension [6]: no degradation; turnover in simulated gastric fluid ([7]; in 4 h): 5%; half-life at 10 µM ([7]; simulated gastric fluid (SGF), pH 1.2): > 10 h

Question: For `O=C(CCCCCc1nc2ccccc2[nH]1)Nc1ccccc1` [Compound C1, 6-(1-H-benzo[d]imidazol-2-yl)-N-phenylhexanamide], which “% inhibition of control specific binding” value [8] is on record?
Answer: The value was 40%.

Question: What about the inhibition at 10 µM [9] of the same compound?
Answer: Its inhibition at 10 µM is 27%.

Question: And the “% inhibition of control specific binding” value [10]?
Answer: Its value is 5%.
